# Measurements taken from patent US8283373B2, “Inhibitors of cytosolic phospholipase A2” (Pfizer Inc., priority 2005, dated 2012).
# “Also recorded” adds a separate entry of the source.
# Legend:
# [1] = system: TXB2; assay: Rat Whole Blood Assay (A23187-stimulated TXB2); type: cell-based; settings: Rattus norvegicus; A23187 5 μM
# How it was run: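 Heparinized male Sprague-Dawley rat blood pre-incubated 15 min at 37 °C with compound or DMSO, then stimulated with 5 μM (final) A23187 for 10 min at 37 °C. Stopped with 20 mM EDTA; TXB2 in methanol-extracted plasma measured by ELISA.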
# [2] = system: carrageenan paw edema; assay: Carrageenan paw edema assay; type: in vivo; settings: oral
# Description: The carrageenan paw edema assay is an acute model of inflammation that is particularly useful for in vivo assessment of compounds that effect the production of prostaglandins. In particular, NSAIDs inhibit edema in a characteristic dose response fashion in this model, and the activity of NSAIDs in this model correlates well with the activity observed in man (See Mukherjee A, et al., Inflamm Res. 1996; 45:531-540). Therefore, the compound of Example 10 was tested in the carrageenan paw edema model.
# [3] = system: Ascaris suum antigen-induced bronchoconstriction and AHR; assay: Sheep model of antigen-induced early and late-phase bronchoconstriction and AHR; type: in vivo
# Description: In addition to the allergen induced pulmonary inflammation models in rodents, allergen induced changes in lung function are often evaluated in allergic sheep. […] Studies performed in this animal model present strong evidence that the release of arachidonic acid metabolites plays an important role in the development of late bronchial responses to antigen challenge (See Abraham, W. M., et al, Respiration. 1989; 56:48-56). Thus, the compound of Example 10 was evaluated for effects on allergen induced changes in lung function In a sheep model of asthma.
# Allergen-induced reversible airway narrowing and AHR are two hallmark features of allergic asthma that can be examined in vivo in a sheep model of asthma. Studies performed in this animal model present strong evidence that the release of arachidonic acid metabolites plays an important role in the development of late bronchial responses to antigen challenge (See Abraham, W. M., et al., Respiration. 1989; 56:48-56). The release of leukotrienes through the LO pathway during the acute bronchial constriction after inhalation of Ascaris suum antigen represents the key factor for the initiation of the subsequent events, namely the late-phase response and the bronchial hyperreactivity. […] In addition, oral administration of a dual LTD4/TXB2 inhibitor can inhibit both the early and late-phase response, as well as AHR to carbachol and histamine (See Abraham, W. M., et al., J Pharmacol Exp Ther. 1988; 247:1004-1011).
# The compound of Example 10 was administered at 3 mg/kg BID (PO) 24 h prior to challenge, 2 h prior to challenge and 8 hr post challenge. The mean % increase in airway resistance for 3 individual sheep over the ensuing 8 h period was determined.
# The following day, airway hyperresponsiveness (AHR) was assessed in these same treated sheep by determining the cumulative carbachol concentration that increased specific lung resistance by 400%. […] In an extended dosing regimen, compound of Example 10 was administered at 3 mg/kg PO BID for 4 days before challenge, 2 hours before challenge on the fifth day and 8 hr post challenge.
# [4] = 3 mg/kg BID PO 24 h and 2 h prior to and 8 hr post challenge
# [5] = extended regimen: 3 mg/kg PO BID 4 days before challenge, 2 hours before and 8 hr post
smiles,measurement,setting,value
"O=C(O)c1ccc(CCCc2c(CCNS(=O)(=O)Cc3ccccc3C(F)(F)F)n(C(c3ccccc3)c3ccccc3)c3ccc(Cl)cc23)cc1 [Example 10, 4-(3-{5-chloro-1-(diphenylmethyl)-2-[2-({[2-(trifluoromethyl)benzyl]sulfonyl}amino)ethyl]-1H-indol-3-yl}propyl)benzoic acid]",IC50,[1],20 nM
same,Paw edema,"[2]; 2 hours before carrageenan, doses as low as 3 mg/kg",statistically significantly decreased; also recorded: significantly inhibited edema
same,ED50,"[2]; based on a maximal inhibition of 50%, read-out: approximate ED50 of paw edema inhibition",~7.5 mg/kg
same,airway hyperresponsiveness (AHR) to carbachol,[3]; [4],complete blockade
same,late asthmatic response (airway resistance),[3]; [4],Complete blockade
same,AHR to aerosolized carbachol,[3]; [5],complete blockade
same,early asthmatic response,[3]; [5],modest but statistically significant inhibition
same,late-phase response,[3]; [5],complete blockade
